Data taken from patent publication US20070066616A1, “Inhibitors for extracellular signal-regulated kinase docking domains and uses therefor” (priority 2005, published 2007).
“Also recorded” adds a separate entry of the source.

Key:
[1] = system: ERK-mediated phosphorylation of Rsk-1 on Thr573; experiment: ERK-mediated Rsk-1 phosphorylation (Thr573), immunoblot and densitometry in EGF-stimulated HeLa cells; assay type: cell-based, human; settings: immunoblot
Procedure: Prior to harvesting, cells were pre-incubated with the test compounds for 15-20 minutes and then stimulated with EGF or anisomycin to activate the ERK or p38 MAP kinase pathways, respectively. Control and treated cells were washed twice with cold phosphate buffered saline (PBS, pH 7.2; Invitrogen) and proteins were collected following cell lysis with 300 μl of cold tissue lysis buffer (20 mM Tris, pH 7.4, 137 mM NaCl, 2 mM EDTA, 1% Triton X-100, 0.1% SDS, 25 mM β-glycerophosphate, 2 mM sodium pyrophosphate, 10% glycerol, 1 mM sodium orthovanadate, 1 mM phenylmethylsulfonyl fluoride (PMSF), 1 mM benzamidine), allowed to incubate on ice for about 10 minutes and then centrifuged at 20,000 (X g) to clarify the lysates of insoluble material. The lysates then were diluted with an equal volume of 2X SDS-sample buffer and the proteins were separated on SDS-PAGE for immunoblot analysis. Immunoblot analysis was done as previously described (41-43).
All compounds were subjected to assays of ERK specific phosphorylation of Rsk-1 and/or Elk-1 as examined by immunoblot analysis using phosphorylation specific antibodies. In FIG. 5A HeLa cells were cultured in 24 well plates and pretreated for 20-30 minutes with […] of the selected test compounds. The cells were stimulated with epidermal growth factor (EGF, 50 ng/ml) for 5 minutes to activate the ERK pathway. Cell lysates were collected and immunoblotted for ERK-mediated phosphorylation of Rsk-1 on Thr573. As shown, EGF treatment alone caused a robust increase in Thr573 phosphorylation on Rsk-1 in the absence of test compounds. The presence of test compounds had inhibitory effects on ERK-mediated Rsk-1 phosphorylation.
Compounds 86-98 were first tested for inhibition of ERK mediated phosphorylation of the transcription factor Elk-1, which is an important regulator of cell proliferation. Cells were treated with EGF to activate the ERK pathway and phosphorylation of Elk-1 on the ERK site at S383 was detected by immunoblot analysis (FIG. 5C). […] The effects of the test compounds were also tested with Rsk-1, another ERK substrate involved in regulating cell proliferation.

[2] = system: ERK-mediated phosphorylation of Elk-1 on S383; experiment: ERK-mediated Elk-1 phosphorylation (Ser383), immunoblot in EGF-stimulated HeLa cells; assay type: cell-based, human
Procedure: (§1) Prior to harvesting, cells were pre-incubated with the test compounds for 15-20 minutes and then stimulated with EGF or anisomycin to activate the ERK or p38 MAP kinase pathways, respectively. […] The lysates then were diluted with an equal volume of 2X SDS-sample buffer and the proteins were separated on SDS-PAGE for immunoblot analysis. Immunoblot analysis was done as previously described (41-43).
Cells were treated with EGF to activate the ERK pathway and phosphorylation of Elk-1 on the ERK site at S383 was detected by immunoblot analysis (FIG. 5C). […] The effects of the test compounds were also tested with Rsk-1, another ERK substrate involved in regulating cell proliferation.

[3] = system: HeLa cells; experiment: Colony formation assay, HeLa cells; assay type: cell-based, human; settings: for IC50: HeLa cells, single dose 0-100 μM, 8-10 days, at least 3 experiments
Procedure: HeLa, A549, or SUM-159 cells were plated at a low density of ˜200-400 cells per well in the absence or presence of putative ERK docking domain inhibitors. Cell colonies were stained with crystal violet and counted after 6-10 days.
(§2) Trypsinized cells were plated on 12 or 24 well plates at low densities (200-400 cells per well) in the absence (DMSO only) or presence of test compounds. In additional experiments, cells were first allowed to adhere to the culture dishes for 16 hours prior to treatment with test compounds. The treated cells received a single dose of the test compounds at the beginning of the experiments. The control and treated cells were grown for 8-14 days to allow the formation of colonies. Cells then were fixed for 10 minutes in 4% paraformaldehyde and stained with 0.2% crystal violet (in 20% methanol) for 1-2 minutes. Following several washes with distilled water, the colonies (containing at least 40 cells) were counted. Each individual experiment was repeated on at least 3 separate occasions.
HeLa cells were plated at low density and incubated with a single dose (0-100 μM) of the test compounds being tested. After 8-10 days, the resulting cell colonies were stained, photographed, and counted to estimate the IC50. The data is derived from at least 3 independent experiments.

[4] = system: HeLa, A549, or SUM-159 cells; experiment: Colony formation assay, screen of test compounds (FIG. 7A); assay type: cell-based, human; set-up: dose or concentration left out as unconfirmed; settings: FIG. 7A screen as printed
Procedure: HeLa, A549, or SUM-159 cells were plated at a low density of ˜200-400 cells per well in the absence or presence of putative ERK docking domain inhibitors. Cell colonies were stained with crystal violet and counted after 6-10 days. In FIG. 7A cells were grown on 10 cm plates in the absence (−) or presence of 100 mM of compound 67, 36, 68, 81, or 76. Colony formation dose response in the presence of the indicated concentrations of compound 76 or 81 for Hela cells […] (FIG. 7B), A549 cells (50 mM) (FIG. 7C), or SUM-159 cells (50 mM) (FIG. 7D).
as §2
The effects of the active compounds on cell proliferation and survival were tested using a colony formation assay.

[5] = target: T1, ERK2 (Mus musculus, UniProt P63085); experiment: Fluorescence titration (quenching of intrinsic ERK2 fluorescence); assay type: binding; settings: fluorescence titration
T1 construct: (His)x6; made in house; host or cells: bacteria
T1 sequence (P63085 whole entry): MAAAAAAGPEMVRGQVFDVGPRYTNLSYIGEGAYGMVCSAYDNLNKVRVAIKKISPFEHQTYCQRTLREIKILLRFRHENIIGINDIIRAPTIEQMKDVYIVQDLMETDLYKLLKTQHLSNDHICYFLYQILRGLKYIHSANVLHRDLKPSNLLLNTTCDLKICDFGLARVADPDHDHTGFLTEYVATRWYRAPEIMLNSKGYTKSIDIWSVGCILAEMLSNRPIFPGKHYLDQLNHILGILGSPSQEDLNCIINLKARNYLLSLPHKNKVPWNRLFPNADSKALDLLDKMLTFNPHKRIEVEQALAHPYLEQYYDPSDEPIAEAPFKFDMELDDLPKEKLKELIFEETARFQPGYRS
Procedure: Experiments measure the changes in the intrinsic ERK2 fluorescence due to the presence of aromatic amino acids, with the indole group of tryptophan being the major fluorophore with absorption and emission maxima around 280 and 340 nanometers (nm), respectively. Fluorescence spectra were recorded with a Luminescence Spectrometer LS50 (Perkin Elmer, Boston, Mass.). For all experiments, ERK2 protein was diluted into 20 mM Tris-HCl, pH 7.5. Titrations were performed by increasing the test compound concentration while maintaining the ERK2 protein concentration at 3 μM.
The excitation wavelength was 295 nm and fluorescence was monitored from 300 to 500 nm. All reported fluorescence intensities are relative values and are not corrected for wavelength variations in detector response. Dissociation constants, KD, were determined using reciprocal plots, 1/ν vs 1/[I], where ν represents the percent occupied sites calculated assuming fluorescence quenching to be directly proportion to the percentage of occupied binding sites, [I] represents the concentration of the inhibitor compound and the slope of the curve equals the KD (48-49).
ERK2 contains three tryptophans, which have intrinsic fluorescence. Fluorescence quenching of ERK2 by the test compounds is indicative of binding interactions and potential protein conformational changes.

[6] = system: ERK specific phosphorylation of Rsk-1 and/or Elk-1; experiment: ERK substrate phosphorylation assays (Rsk-1 and/or Elk-1); assay type: cell-based, human
Procedure: as §1

[7] = system: SUM-159 estrogen-receptor negative breast cancer cell line; experiment: Cell proliferation, SUM-159 cells; assay type: cell-based, human
Procedure: (§3) HeLa, A549, or SUM-159 cells were plated at a low density of ˜200-400 cells per well in the absence or presence of putative ERK docking domain inhibitors. Cell colonies were stained with crystal violet and counted after 6-10 days. In FIG. 7A cells were grown on 10 cm plates in the absence (−) or presence of 100 mM of compound 67, 36, 68, 81, or 76. Colony formation dose response in the presence of the indicated concentrations of compound 76 or 81 for Hela cells (100 mM) (FIG. 7B), A549 cells (50 mM) (FIG. 7C), or SUM-159 cells (50 mM) (FIG. 7D).
as §2

[8] = system: HT1080 fibrosarcoma cells; experiment: Cell proliferation, HT1080 cells; assay type: cell-based, human; settings: data not shown
Procedure: as §2

[9] = system: A549 lung carcinoma cells; experiment: Colony formation assay, A549 cells; assay type: cell-based, human; settings: colony formation dose response (FIG. 7C)
Procedure: as §3, §2

Row | Structure (SMILES) | IC50 [3] [µM] | effect on ERK-mediated Rsk-1 phosphorylation (in words) [1] | other results
1 | NC(=N[N+](=O)[O-])N/N=C/c1ccc(-c2cccc([N+](=O)[O-])c2)o1 [Compound 89] |  | most effective | effect on ERK-mediated Elk-1 phosphorylation (in words) [2]: most effective
2 | CN(C)CCNC(=O)c1ccc(-c2ccccc2)cc1 [Compound 68] |  | appeared to enhance; also recorded: enhanced | effect on colony formation / cell proliferation (in words) [4]: little effect
3 | COc1ccc(CN2CCNCC2)cc1 [Compound 67] |  | significantly reduced | ERK2 fluorescence quenching / binding (in words) [5]: did not show quenching; effect on colony formation / cell proliferation (in words) [4]: little effect
4 | NC(=O)COc1ccc(C=C2C(=O)NC(=S)NC2=O)cc1 [Compound 98] | > 100 |  | 
5 | N=C(N)Nc1nc(C2COc3ccccc3O2)cs1 (stereo not drawn) [Compound 36] |  | little effect | activity in ERK substrate phosphorylation assays (in words) [6]: little effect; effect on colony formation / cell proliferation (in words) [4]: subtle inhibition; also recorded: little effect
6 | O=C(CCN1CCN(C/C=C/c2ccccc2)CC1)Nc1ccc(Cl)cc1 [Compound 81] |  |  | inhibition of cell proliferation in SUM-159 (in words) [7]: inhibition of cell proliferation; ERK2 fluorescence quenching / binding (in words) [5]: quenching only occurs to a small extent at the higher concentrations; inhibition of cell proliferation in HT1080 (in words) [8]: inhibition of cell proliferation; IC50 [9]: ~15 µM; effect on colony formation / cell proliferation (in words) [4]: completely inhibited

More lines, main results first:

Row | IC50 [3] [µM] | Structure (SMILES) | effect on ERK-mediated Rsk-1 phosphorylation (in words) [1] | other results
7 | 10 to 25 | COc1cc(C=C2NC(=O)NC2=O)ccc1OCc1ccc(Br)cc1 [Compound 95] | most effective | effect on ERK-mediated Elk-1 phosphorylation (in words) [2]: most effective
8 | > 100 | C#CCOC(=O)CCCC(=O)Nc1ccc([N+](=O)[O-])cc1Cl [Compound 87] |  | 
9 | > 100 | O=C(CN1CCSCC1)NN=Cc1ccc(Br)s1 [Compound 97] |  | 
10 | > 100 | COc1ccc(C(=O)Nc2ccc(OCC(=O)O)cc2)cc1 [Compound 96] |  | 
11 | > 100 | CCOC(=O)c1ccc(NC(=S)NCCN2CCOCC2)cc1 [Compound 90] |  | 
12 | > 100 | CC(Oc1ccc(C=C2NC(=S)NC2=O)cc1)C(=O)O (stereo not drawn) [Compound 91] | most effective | 
13 | 5 to 10 | Cc1ccc(-c2nc(-c3cccc([N+](=O)[O-])c3)no2)c(Cl)c1 [Compound 93] |  | effect on ERK-mediated Elk-1 phosphorylation (in words) [2]: most effective; inhibition of colony formation / cancer cell proliferation (in words) ([3]; compounds 86-98, colony formation assay (FIG. 7E)): most effective inhibitors; ERK2 fluorescence quenching / binding (in words) [5]: some quenching
14 | > 100 | CCOC(=O)c1ccc(C=NO)[n+]([O-])c1 [Compound 88] |  | 
